Data: patent publication US10647678B2 (Cancer Research Technology Limited, priority 2015, dated 2020)

system: HSF1 pathway (HSP72 expression) in SK-OV-3 cells; assay: Cell-based ELISA (Cellisa) assay: HSP72 induction by 17-AAG in SK-OV-3 cells; details: Homo sapiens, compound 1 h before 17-AAG (250 nM), then 18 h, HSP72 antibody, europium counts normalised to protein, 50% inhibitory concentration, read-out: SKOV3 Cellisa
Experimental: U2OS cells (5-8×10^4 cells/mL) or SK-OV-3 cells (5-8×10^4 cells/mL) were seeded into 96-well plates and incubated at 37° C. for 48 h. […] Cells were then incubated for 18 h. The medium was removed washed 2× with PBS and cells were then fixed with fixing solution (4% paraformaldehyde, 0.3% TritonX-100 in PBS) for 30 min at 4° C. The plates were then washed 2× with PBS before blocking with 5% milk for 30 min at 37° C. After washing the plates 4× with 0.1% Tween-20/deionised water, HSP72 antibody (SPA-810, Enzo Life) was added for 1.5 h at 37° C. Following 4× washes, the plates were incubated with europium-labelled anti-mouse antibody (0.6 ug/ml) in Delfia assay buffer (Perkin Elmer) for 1 h at 37° C. After washing the plates, Delfia enhancement solution was added, shaken for 10 min before reading in the Envision plate reader (Perkin-Elmer) with excitation at 340 nm and emission at 615 nm. The plates were washed again before protein determination using the bicinchoninic acid assay (BCA assay, Pierce Biotechnology). The europium counts were normalised for the amount of protein in each well. The 50% inhibitory concentration value of the compound was then calculated.

| SMILES | IC50 [nM] |
| --- | --- |
| Cc1ccc2cc(C(=O)Nc3cc(NC(=O)c4ccc5c(c4)OC(C)C5)ccc3C)ccc2n1 (racemic) [Example 2, (rac)-2-Methyl-N-(2-methyl-5-(2-methyl-2,3-dihydrobenzofuran-6-carboxamido)phenyl)quinoline-6-carboxamide] | 3400 |
| Cc1ccc2cc(C(=O)Nc3cc(NC(=O)c4ccc5c(c4)OC(C)CO5)ccc3C)ccc2n1 (racemic) [Example 3, (rac)-2-Methyl-N-(2-methyl-5-(3-methyl-2,3-dihydrobenzo[b][1,4]dioxine-6-carboxamido)phenyl)quinoline-6-carboxamide] | 4100 |
| Cc1ccc2cc(C(=O)Nc3cc(NC(=O)c4ccc5c(c4)CC(C)O5)ccc3C)ccc2n1 (racemic) [Example 5, (rac)-2-Methyl-N-(2-methyl-5-(2-methyl-2,3-dihydrobenzofuran-5-carboxamido)phenyl)quinoline-6-carboxamide] | 2900 |
| Cc1ccc2cc(C(=O)Nc3cc(NC(=O)c4ccc5c(c4)OC(C)CO5)ccc3F)ccc2n1 (centres unmarked) [Example 4, N-(2-Fluoro-5-(3-methyl-2,3-dihydrobenzo[b][1,4]dioxine-6-carboxamido)phenyl)-2-methylquinoline-6-carboxamide] | 8800 |
| Cc1ccc2cc(C(=O)Nc3cc(NC(=O)c4ccc5c(c4)OCCC5)ccc3F)ccc2n1 [Example 6, N-(5-(Chroman-7-carboxamido)-2-fluorophenyl)-2-methylquinoline-6-carboxamide] | 2700 |
| Cc1ccc2cc(C(=O)Nc3cc(NC(=O)c4ccc5c(c4)OCCC5)ccc3Cl)ccc2n1 [Example 7, N-(2-Chloro-5-(chroman-7-carboxamido)phenyl)-2-methylquinoline-6-carboxamide] | 1500 |
| Cc1ccc2cc(C(=O)Nc3cc(NC(=O)c4ccc5c(c4)OCO5)ccc3C)ccc2n1 [Example 8, N-(5-(Benzo[d][1,3]dioxole-5-carboxamido)-2-methylphenyl)-2-methylquinoline-6-carboxamide] | 130 |
| Cc1ccc2cc(C(=O)Nc3cc(NC(=O)c4ccc5c(c4)OCC5)ccc3C)ccc2n1 [Example 9, N-(5-(2,3-Dihydrobenzofuran-6-carboxamido)-2-methylphenyl)-2-methylquinoline-6-carboxamide] | 170 |
| Cc1ccc2cc(C(=O)Nc3cc(NC(=O)c4ccc5c(c4)CCO5)ccc3C)ccc2n1 [Example 10, N-(5-(2,3-dihydrobenzofuran-5-carboxamido)-2-methylphenyl)-2-methylquinoline-6-carboxamide] | 1800 |
| Cc1ccc2cc(C(=O)Nc3cc(NC(=O)c4ccc5ccoc5c4)ccc3C)ccc2n1 [Example 11, N-(5-(benzofuran-6-carboxamido)-2-methylphenyl)-2-methylquinoline-6-carboxamide] | 880 |
| Cc1ccc2cc(C(=O)Nc3cc(NC(=O)c4ccc5c(c4)OCCCO5)ccc3C)ccc2n1 [Example 12, N-(5-(3,4-dihydro-2H-benzo[b][1,4]dioxepine-7-carboxamido)-2-methylphenyl)-2-methylquinoline-6-carboxamide] | 670 |
| Cc1ccc2cc(C(=O)Nc3cc(NC(=O)c4ccc5c(c4)OCC5)ccc3F)ccc2n1 [Example 13, N-(5-(2,3-Dihydrobenzofuran-6-carboxamido)-2-fluorophenyl)-2-methylquinoline-6-carboxamide] | 1800 |
| Cc1ccc2cc(C(=O)Nc3cc(NC(=O)c4ccc5c(c4)OCC5)ccc3Cl)ccc2n1 [Example 14, N-(2-Chloro-5-(2,3-dihydrobenzofuran-6-carboxamido)phenyl)-2-methylquinoline-6-carboxamide] | 2100 |
| CCN1CCN(Cc2ccc3cc(C(=O)Nc4cc(NC(=O)c5ccc6c(c5)OCCC6)ccc4F)ccc3n2)CC1 [Example 15, N-(5-(Chroman-7-carboxamido)-2-fluorophenyl)-2-((4-ethylpiperazin-1-yl)methyl)quinoline-6-carboxamide] | 1000 |
| CCN1CCN(Cc2ccc3cc(C(=O)Nc4cc(NC(=O)c5ccc6c(c5)OCC6)ccc4C)ccc3n2)CC1 [Example 16, N-(5-(2,3-Dihydrobenzofuran-6-carboxamido)-2-methylphenyl)-2-((4-ethylpiperazin-1-yl)methyl)quinoline-6-carboxamide] | 120 |
| CCN1CCN(Cc2ccc3cc(C(=O)Nc4cc(NC(=O)c5ccc6c(c5)OCC6)ccc4F)ccc3n2)CC1 [Example 17, N-(5-(2,3-Dihydrobenzofuran-6-carboxamido)-2-fluorophenyl)-2-((4-ethylpiperazin-1-yl)methyl)quinoline-6-carboxamide] | 780 |
| CCN1CCN(Cc2ccc3cc(C(=O)Nc4cc(NC(=O)c5ccc6c(c5)OCC6)ccc4Cl)ccc3n2)CC1 [Example 18, N-(2-Chloro-5-(2,3-dihydrobenzofuran-6-carboxamido)phenyl)-2-((4-ethylpiperazin-1-yl)methyl)quinoline-6-carboxamide] | 640 |
| O=C(Nc1ccc(F)c(NC(=O)c2ccc3nc(CN4CCC4)ccc3c2)c1)c1ccc2c(c1)OCC2 [Example 19, 2-(Azetidin-1-ylmethyl)-N-(5-(2,3-dihydrobenzofuran-6-carboxamido)-2-fluorophenyl)quinoline-6-carboxamide] | 3100 |
| O=C(Nc1ccc(Cl)c(NC(=O)c2ccc3nc(CN4CCC4)ccc3c2)c1)c1ccc2c(c1)OCCC2 [Example 20, 2-(Azetidin-1-ylmethyl)-N-(2-chloro-5-(chroman-7-carboxamido)phenyl)quinoline-6-carboxamide] | 3800 |
| O=C(Nc1ccc(Cl)c(NC(=O)c2ccc3nc(CN4CCC4)ccc3c2)c1)c1ccc2c(c1)OCC2 [Example 21] | 1800 |
